From patent US10202388B2, “Fused-ring compounds, pharmaceutical composition and uses thereof” (SHANGHAI DE NOVO PHARMATECH CO., LTD., priority 2015, dated 2019)

Assays:
Human recombinant IDO1 = Human recombinant IDO1 (Homo sapiens (Human), UniProt P14902); experiment: IDO1 enzymatic assay (UV absorption at 321 nm); format: biochemical; conditions: human recombinant IDO1, 80 min incubation, room temperature; read-out: hIDO1 IC50
Protocol: The detailed experimental method is as follow:
The compounds described in this disclosure were dissolved in 10% DMSO to predefined concentration. All of the reactions were conducted at room temperature in this disclosure. Human recombinant IDO1 (BPS Bioscience) was added so that its concentration was 200 nm in the reaction buffer solution (200 μL). […] 10 μL test compound solution was added into the above reaction solution (200 μL), so that the final concentration of DMSO in all reaction wells was 0.5%. % concentration was volume %. After 80 min incubation of the reaction solution, the UV absorbance was measured using TECAN Infinite M1000 plate reader. For the negative control (blank), 10 μl of the assay buffer was added instead of the IDO1
All reagents (excluding human recombinant IDO1) were purchased from Sigma Aldrich, MO, USA.
(§1) The percent activity in the presence of each compound was calculated according to the following equation: % activity=[(A−Ab)/(At−Ab)]×100, where A=the absorption signal in the presence of the compound, Ab=the absorption signal of blank, At=the absorption signal in the absence of the compound. […] The IC50 was calculated using non-linear regression in Graph Pad Prism® 4.

HeLa cell IDO1 = HeLa cell IDO1 (Homo sapiens (Human), UniProt P14902); experiment: HeLa cell based IDO1 inhibition assay (kynurenine readout, IFN-γ induced); conditions: HeLa cells
Protocol: HeLa cell line was purchased from ATCC, cultured in MEM/EBSS medium supplemented with 10% FBS, penn-step (100,000 U/L), non-essential amino acid (0.1 Mm), sodium pyruvate (1.0 Mm). Cells were cultured at 37° C., 95% humidity and 5% CO2. […] The detailed experimental method is as follow:
25,000 HeLa cells were placed on 96-well plates. Each well contained 100 μl culture medium, subsequently IFN-γ and test compounds at specific concentrations (concentration range between 10 μM and 1 Nm, so that the final volume of culture medium was 200 μL) were added and IFN-γ was used to induce IDO1 expression. After incubation, 140 μL supernatant was transferred to 96-well plates. After adding 6.1 N TCA (10 μL), the plates were continuously incubated at 50° C. for 30 min, to hydrolyze N-formylkynurenine produced by IDO to kynurenine. The reaction solution was then centrifuged at 2500 rpm for 10 min to remove precipitate. 100 μL/well supernatant was then transferred to another 96-well plate. 100 μL of 2% (w/v) 4-N,N-dimethyl aminobenzaldehyde acetic acid solution was added and incubated at room temperature for 10 min. The yellow color derived from kynurenine was recorded by measuring absorbance at 480 nm using a microplate reader (TECAN Infinite M1000 Pro).

HeLa cell based IDO1 = HeLa cell based IDO1 (Homo sapiens (Human), UniProt P14902); experiment: Three-point IDO1 cellular assay (HeLa, 10, 100 and 1000 nM); conditions: HeLa cells, 100 ng/mL IFN-γ, 18 hours; for inhibition values of %: at 1000 nM
Protocol: To perform the 3-point HeLa cell based IDO1 assay, HeLa cells were seeded at 25,000 cells per well into 96-well microplate in 100 μL of growth medium. Cells were incubated at 37° C. and 5% CO2 overnight. The next day 100 μL per well of diluted inhibitor in growth medium at 10, 100 and 1000 nM, respectively, was added at a final concentration of 100 ng/ML human IFN-γ. Cells were incubated at 37° C. in a CO2 incubator for 18 hours. […] The plate was incubated at 50° C. for 30 min to hydrolyze N-formylkynurenine produced by IDO1 to kynurenine. The plate was then centrifuged at 2500 rpm for 10 min to remove sediments. 100 μl of supernatant per well was transferred to another 96-well plate and mixed with 100 μL of 2% (w/v) 4-(Dimethylamino) benzaldehyde in acetic acid. The plate was incubated at room temperature for 10 minutes, the yellow color derived from kynurenine was recorded by measuring absorbance at 480 nm using a microplate reader (TECAN Infinite M1000 Pro). Cell based assays were performed in triplicate at each concentration. The absorbance data were analyzed using the computer software, Graphpad Prism. In the absence of the compound and presence of 100 ng/ML IFN-γ, the absorbance (At) in each data set was defined as 100%. The absorbance of medium blank (Ab) in each data set was defined as 0%. The percent absorbance in the presence of each compound was calculated according to the following equation: % Absorbance=(A−Ab)/(At−Ab), where A=the absorbance in the presence of the compound and IFN-γ, Ab=the absorbance of medium blank, and At=the absorbance in the absence of the compounds and presence of IFN-γ. The values of % absorbance versus the compound concentrations were then determined.

recombinant TDO2 = recombinant TDO2 (Homo sapiens (Human), UniProt P48775); experiment: TDO2 enzymatic assay (UV absorption at 321 nm); format: biochemical; conditions: 50 nM TDO2, 200 μM tryptophan, 75 min
Protocol: The TDO2 enzymatic assay was performed by UV absorption using a recombinant TDO2 and L-Tryptophan substrate. The UV absorption signal at 321 nm is correlated with the amount of N-formylkynurenine reaction product of TDO2. The compounds were diluted in 10% DMSO and 5 μL of the dilution was added to a 100 μL reaction so that the final concentration of DMSO is 0.5% in all of reactions. All of the reactions were conducted at room temperature. The 100 μL reaction mixture in TDO2 Assay Buffer contains 50 nM TDO2, the indicated amount of the inhibitor, 200 μM tryptophan, and the coupled reaction components. The reaction mixture incubated for 75 min prior to reading the UV absorption signal. For the negative control (blank), 5 μl of the assay buffer was added instead of the TDO2.
as §1, with “Absorption signals were measured using a Tecan Infinite M1000 plate reader. Binding experiments were performed in duplicate at each concentration. The percent” for “The percent”

recombinant TDO2, sequence (P48775 whole entry, species assumed): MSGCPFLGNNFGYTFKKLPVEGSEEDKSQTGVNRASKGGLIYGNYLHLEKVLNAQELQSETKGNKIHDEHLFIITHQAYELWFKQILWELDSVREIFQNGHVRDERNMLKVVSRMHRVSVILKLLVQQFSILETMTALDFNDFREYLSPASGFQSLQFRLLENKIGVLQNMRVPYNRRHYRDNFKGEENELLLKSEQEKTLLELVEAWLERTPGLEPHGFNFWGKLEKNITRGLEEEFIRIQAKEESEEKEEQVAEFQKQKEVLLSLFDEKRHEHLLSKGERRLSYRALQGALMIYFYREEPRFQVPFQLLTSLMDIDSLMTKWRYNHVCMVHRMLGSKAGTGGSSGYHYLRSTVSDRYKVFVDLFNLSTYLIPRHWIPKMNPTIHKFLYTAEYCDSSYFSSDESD
HeLa cell IDO1, sequence (P14902 whole entry): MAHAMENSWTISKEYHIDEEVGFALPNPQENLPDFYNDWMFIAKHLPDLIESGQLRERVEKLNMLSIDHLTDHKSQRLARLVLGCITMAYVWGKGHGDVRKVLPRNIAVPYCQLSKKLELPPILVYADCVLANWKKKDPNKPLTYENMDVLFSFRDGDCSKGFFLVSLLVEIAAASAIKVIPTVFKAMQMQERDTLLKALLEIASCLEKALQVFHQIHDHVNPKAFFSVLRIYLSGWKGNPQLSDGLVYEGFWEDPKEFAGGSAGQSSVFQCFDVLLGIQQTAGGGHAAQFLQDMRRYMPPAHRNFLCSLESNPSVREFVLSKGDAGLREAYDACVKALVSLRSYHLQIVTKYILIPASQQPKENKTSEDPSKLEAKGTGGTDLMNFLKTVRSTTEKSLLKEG
Human recombinant IDO1, sequence (P14902 whole entry): as above
HeLa cell based IDO1, sequence (P14902 whole entry): as above

O=C(C[C@H]1c2ccccc2-c2cncn21)C12CC3CC(CC(C3)C1)C2 (single isomer, unassigned) [Compound 1-2]
IC50 (Human recombinant IDO1): < 100 nM
IC50 (HeLa cell IDO1): 100 to 500 nM

O=C(C[C@@H]1c2ccccc2-c2cncn21)C12CC3CC(CC(C3)C1)C2 (single isomer, unassigned) [Compound 1-3]
IC50 (Human recombinant IDO1): < 100 nM
IC50 (HeLa cell IDO1): < 100 nM

O=C(NC1C2CC3CC1CC(C(O)CC1c4ccccc4-c4cncn41)(C3)C2)c1ccccc1 (single isomer, unassigned) [Compound 52A]
IC50 (Human recombinant IDO1): < 100 nM
IC50 (HeLa cell IDO1): < 100 nM

O=C(NC1C2CC3CC1CC(C(O)CC1c4ccccc4-c4cncn41)(C3)C2)c1ccccc1 (single isomer, unassigned) [Compound 52B]
IC50 (Human recombinant IDO1): 100 to 500 nM
IC50 (HeLa cell IDO1): < 100 nM

O=C(Cc1ccccc1)NC1C2CC3CC1CC(C(O)CC1c4ccccc4-c4cncn41)(C3)C2 (single isomer, unassigned) [Compound 53A]
IC50 (Human recombinant IDO1): < 100 nM
inhibition at 0.1 µM (HeLa cell based IDO1; at 100 nM): > 50%

OC(CC1c2ccccc2-c2cncn21)C12CC3CC(CC(C3)C1)C2 (stereo not shown) [Compound 1]
IC50 (Human recombinant IDO1): < 100 nM
IC50 (HeLa cell IDO1): 100 to 500 nM

OC(CC1c2ccccc2-c2cncn21)C12CC3CC(CC(O)(C3)C1)C2 (stereo not shown) [Compound 9]
IC50 (Human recombinant IDO1): < 100 nM
IC50 (HeLa cell IDO1): 100 to 500 nM

OC1C2CC3CC1CC(C(O)CC1c4ccccc4-c4cncn41)(C3)C2 (stereo not shown) [Compound 10A]
IC50 (Human recombinant IDO1): < 100 nM
IC50 (HeLa cell IDO1): < 100 nM

CC1(O)C2CC3CC1CC(C(O)CC1c4ccccc4-c4cncn41)(C3)C2 (stereo not shown) [Compound 11A-2]
IC50 (Human recombinant IDO1): < 100 nM
IC50 (recombinant TDO2): < 500 nM

OC(CC1c2ccccc2-c2cncn21)C12CC3CC(CC(C3)C1)C2 (stereo not shown) [Compound 13]
IC50 (Human recombinant IDO1): < 100 nM
IC50 (HeLa cell IDO1): 100 to 500 nM

CC1(O)C2CC3CC1CC([C@H](O)CC1c4ccccc4-c4cncn41)(C3)C2 (stereo partly shown) [Compound 14A-4]
IC50 (Human recombinant IDO1): < 100 nM
IC50 (HeLa cell IDO1): < 100 nM

OC1C2CC3CC1CC(C(O)CC1c4ccccc4-c4cncn41)(C3)C2 (stereo not shown) [Compound 14A]
IC50 (Human recombinant IDO1): < 100 nM
IC50 (HeLa cell IDO1): < 100 nM

OC(CC1c2c(F)cccc2-c2cncn21)C12CC3CC(CC(C3)C1)C2 (stereo not shown) [Compound 21]
IC50 (Human recombinant IDO1): < 100 nM
IC50 (HeLa cell IDO1): < 100 nM

OC(CC1c2c(F)cccc2-c2cncn21)C12CC3CC(CC(O)(C3)C1)C2 (stereo not shown) [Compound 22]
IC50 (Human recombinant IDO1): < 100 nM
IC50 (HeLa cell IDO1): 100 to 500 nM

OC1C2CC3CC1CC([C@H](O)CC1c4c(F)cccc4-c4cncn41)(C3)C2 (stereo partly shown) [Compound 23A-1]
IC50 (Human recombinant IDO1): < 100 nM
IC50 (HeLa cell IDO1): 100 to 500 nM

OC1C2CC3CC1CC([C@H](O)CC1c4c(F)cccc4-c4cncn41)(C3)C2 (stereo partly shown) [Compound 23A]
IC50 (Human recombinant IDO1): < 100 nM
IC50 (HeLa cell IDO1): < 100 nM

OC1C2CC3CC1CC([C@@H](O)CC1c4c(F)cccc4-c4cncn41)(C3)C2 (stereo partly shown) [Compound 23B]
IC50 (Human recombinant IDO1): 100 to 500 nM
inhibition values of % (HeLa cell based IDO1): greater than 50%

OC(CC1c2c(F)cccc2-c2cncn21)C12CC3CC(CC(C3)C1)C2 (stereo not shown) [Compound 25]
IC50 (Human recombinant IDO1): < 100 nM
IC50 (HeLa cell IDO1): 100 to 500 nM

OC1C2CC3CC1CC([C@H](O)CC1c4c(F)cccc4-c4cncn41)(C3)C2 (stereo partly shown) [Compound 26A-3]
IC50 (Human recombinant IDO1): < 100 nM
IC50 (HeLa cell IDO1): < 100 nM
IC50 (recombinant TDO2): < 500 nM

OC1C2CC3CC1CC([C@H](O)CC1c4c(F)cccc4-c4cncn41)(C3)C2 (stereo partly shown) [Compound 26A]
IC50 (Human recombinant IDO1): < 100 nM
IC50 (HeLa cell IDO1): < 100 nM

O=S(=O)(Cc1ccccc1)NC1C2CC3CC1CC([C@H](O)CC1c4c(F)cccc4-c4cncn41)(C3)C2 (stereo partly shown) [Compound 45A-1]
IC50 (Human recombinant IDO1): < 100 nM
IC50 (HeLa cell IDO1): < 100 nM
IC50 (recombinant TDO2): < 500 nM

O=S(=O)(Cc1ccccc1)NC1C2CC3CC1CC([C@@H](O)CC1c4c(F)cccc4-c4cncn41)(C3)C2 (stereo partly shown) [Compound 45A-4]
IC50 (Human recombinant IDO1): 100 to 500 nM
IC50 (HeLa cell IDO1): 100 to 500 nM
IC50 (recombinant TDO2): 1000 to 10000 nM

O=S(=O)(Cc1ccccc1)NC1C2CC3CC1CC(C(O)CC1c4c(F)cccc4-c4cncn41)(C3)C2 (stereo not shown) [Compound 45A]
IC50 (Human recombinant IDO1): < 100 nM
IC50 (HeLa cell IDO1): < 100 nM

CS(=O)(=O)NC1C2CC3CC1CC(C(O)CC1c4c(F)cccc4-c4cncn41)(C3)C2 (stereo not shown) [Compound 46]
IC50 (Human recombinant IDO1): < 100 nM
IC50 (HeLa cell IDO1): < 100 nM

O=C(CC1CCCCC1)NC1C2CC3CC1CC(C(O)CC1c4c(F)cccc4-c4cncn41)(C3)C2 (stereo not shown) [Compound 49]
IC50 (Human recombinant IDO1): < 100 nM
IC50 (HeLa cell IDO1): < 100 nM

O=C(Nc1ccccc1)NC1C2CC3CC1CC(C(O)CC1c4c(F)cccc4-c4cncn41)(C3)C2 (stereo not shown) [Compound 55]
IC50 (Human recombinant IDO1): < 100 nM
IC50 (HeLa cell IDO1): < 100 nM

CC(C)(O)CCOC1C2CC3CC1CC(C(O)CC1c4c(F)cccc4-c4cncn41)(C3)C2 (stereo not shown) [Compound 58]
IC50 (Human recombinant IDO1): 100 to 500 nM
IC50 (HeLa cell IDO1): < 100 nM

OCCOC1C2CC3CC1CC(C(O)CC1c4c(F)cccc4-c4cncn41)(C3)C2 (stereo not shown) [Compound 61A]
IC50 (Human recombinant IDO1): < 100 nM
IC50 (HeLa cell IDO1): < 100 nM

OC(CC1c2ccccc2-c2cncn21)C12CC3CC(C1)C(c1ccccc1)C(C3)C2 (stereo not shown) [Compound 62A]
IC50 (Human recombinant IDO1): < 100 nM
inhibition values of % (HeLa cell based IDO1): greater than 50%

Nc1nonc1C(=NO)Nc1ccc(F)c(Cl)c1 [Ref. B, 4-amino-N-(3-chloro-4-fluorophenyl)-N′-hydroxy-1,2,5-oxadiazole-3-carboximidamide, reference compound]
IC50 (recombinant TDO2): 10000 to 100000 nM

OC(CC1c2ncccc2-c2cncn21)C1CCCCC1 (stereo not shown) [compound 3]
IC50 (Human recombinant IDO1): 100 to 500 nM

OC(CC1c2ncccc2-c2cncn21)C12CC3CC(CC(C3)C1)C2 (stereo not shown) [compound 4]
IC50 (Human recombinant IDO1): 100 to 500 nM
IC50 (HeLa cell IDO1): 500 to 1000 nM

OC(CC1c2cc(F)ccc2-c2cncn21)C12CC3CC(CC(C3)C1)C2 (stereo not shown) [compound 7]
IC50 (Human recombinant IDO1): 100 to 500 nM

OC(CC1c2cccc(F)c2-c2cncn21)C12CC3CC(CC(C3)C1)C2 (stereo not shown) [compound 8]
IC50 (Human recombinant IDO1): 100 to 500 nM
